Measured values from publication PMC9179882 (Cancers, 2022).

Columns and labels:
[1] = test system: 5′ETS (DNA, G4) GGGGGGCGGGTGGTTGGG; assay: circular dichroism; conditions: 100 mM KCl, 10 mM potassium phosphate; pH 7.0, 25 °C; 10 µM DNA, 100 µM GA; positive band decreased, no induced CD
SW620 cells = assay: Resazurin cytotoxic assay, metastatic SW620; assay type: cell-based, human; conditions: 48 h, mean ± SD
Procedure: (§1) CRL1790, SW480 and SW620 cell lines were purchased from American Type Culture Collection (ATCC). Cells were cultured at 37 °C with 5% CO2 atmosphere in medium supplemented with 10% fetal bovine serum (10270106, Gibco, Waltham, MA, USA), 10 mg/mL penicillin, 10 mg/mL streptomycin, […] amphotericin, and 0.03% L-Glutamine as recommended by the ATCC. MEM medium (M5650, Merck, Darmstadt, Germany) was used for non-tumoral CRL1790, and RPMI 1640 medium (L0501-500, Biowest, Nuaillé, France) was used for both tumoral SW480 and SW620 cell lines.
(§2) Cytotoxic activity was screened using Resazurin Fluorimetric Assay (R7017, Merck, Darmstadt, Germany), according to the manufacturer’s protocol. Cells seeded into 96-well plates (8 × 10^3 cells/well) were treated for 48 h with phenolic compounds at increasing concentrations from 2 × 10^−5 µM to 100 µM. Negative control with vehicle DMSO was included. Fluorescence was determined using Nanoquant Infinite M200 Pro multi-plate reader (Tecan). Half-maximal inhibitory concentration (IC50) values were determined in triplicate by non-linear regression with Graphpad (Prism).
(§3) Natural products such as phenolic compounds have recently attracted significant attention for their anticancer properties. […] We used three different cell lines to mimic CRC progression. In particular, CRL1790 are colon epithelial cells simulating the non-tumoral stage. In addition, SW480 is Dukes’ type B colorectal adenocarcinoma cells representing the primary tumor. Finally, SW620 constitutes Dukes’ type C colorectal adenocarcinoma derived from metastasic site cells to mimic the most aggressive metastasic stage. […] Cytotoxic potency upon 48 h treatment with phenolic compounds was examined by determination of half-maximal inhibitory concentration (IC50) values using the Resazurin method (Table 1). Only GA inhibited cell growth in SW480 and SW620 at clinically-relevant concentrations (IC50 values lower than 30 µM).

SW480 cells = assay: Resazurin cytotoxic assay, tumoral SW480; assay type: cell-based, human; conditions: SW480 primary tumor cells, mean ± SD
Procedure: as §1, §2, §3

binding [1]: yes
Compound: O=C(O)c1cc(O)c(O)c(O)c1 [Gallic acid, 3,4,5-trihydroxybenzoic acid]
IC50 (SW620 cells): 11.8 ± 1.54 µM
IC50 (SW620 cells; listed as GA): < 30 µM
IC50 (SW480 cells; Homo sapiens, SW480, 48 h): < 30 µM
IC50 (SW480 cells; 48 h): 22.4 ± 2.12 µM
